Test results from PubChem BioAssay AID1259407 (Chemical Carcinogenesis Research Information System (CCRIS), 2018).
Active and inactive are the calls of the source. The rule behind the calls is not given here.

Tested on: CCRIS mutagenicity, Ames/micronucleus/aberration tests
Experiment: CCRIS mutagenicity studies
[1] = Test System: AMES SALMONELLA TYPHIMURIUM, Strain/Indicator: TA97, Metabolic Activation: NONE, Method: STANDARD PLATE
[2] = Test System: AMES SALMONELLA TYPHIMURIUM, Strain/Indicator: TA98, Metabolic Activation: NONE, Method: STANDARD PLATE
[3] = Test System: AMES SALMONELLA TYPHIMURIUM, Strain/Indicator: TA100, Metabolic Activation: NONE, Method: STANDARD PLATE

Measured: mutagenic call

CCBr
active: [1] active; positive | Test System: AMES SALMONELLA TYPHIMURIUM, Strain/Indicator: TA97, Metabolic Activation: RAT, LIVER, S-9, AROCLOR 1254, Method: STANDARD PLATE active; positive | Test System: AMES SALMONELLA TYPHIMURIUM, Strain/Indicator: TA98, Metabolic Activation: RAT, LIVER, S-9, AROCLOR 1254, Method: STANDARD PLATE active; positive | Test System: AMES SALMONELLA TYPHIMURIUM, Strain/Indicator: TA100, Metabolic Activation: HAMSTER, LIVER, S-9, AROCLOR 1254, Method: DESICCATOR active; positive | Test System: AMES SALMONELLA TYPHIMURIUM, Strain/Indicator: TA100, Metabolic Activation: NONE, Method: DESICCATOR active; positive | Test System: AMES SALMONELLA TYPHIMURIUM, Strain/Indicator: TA100, Metabolic Activation: RAT, LIVER, S-9, AROCLOR 1254, Method: DESICCATOR active; positive | Test System: AMES SALMONELLA TYPHIMURIUM, Strain/Indicator: TA100, Metabolic Activation: RAT, LIVER, S-9, AROCLOR 1254, Method: STANDARD PLATE active; positive | Test System: AMES SALMONELLA TYPHIMURIUM, Strain/Indicator: TA104, Metabolic Activation: RAT, LIVER, S-9, AROCLOR 1254, Method: STANDARD PLATE active; positive
inactive: End Point: IN VITRO CHROMOSOMAL ABERRATIONS, Test System: CHO CELLS, Metabolic Activation: NONE inactive; negative | End Point: IN VITRO CHROMOSOMAL ABERRATIONS, Test System: CHO CELLS, Metabolic Activation: RAT, LIVER, S-9, AROCLOR 1254 inactive; negative | End Point: In vitro Micronucleus, Test System: Chinese Hamster Ovary (CHO-WBL) cells, Metabolic Activation: None inactive; negative | Test System: AMES SALMONELLA TYPHIMURIUM, Strain/Indicator: TA98, Metabolic Activation: HAMSTER, LIVER, S-9, AROCLOR 1254, Method: DESICCATOR inactive; negative | Test System: AMES SALMONELLA TYPHIMURIUM, Strain/Indicator: TA98, Metabolic Activation: NONE, Method: DESICCATOR inactive; negative | [2] inactive; negative | Test System: AMES SALMONELLA TYPHIMURIUM, Strain/Indicator: TA98, Metabolic Activation: RAT, LIVER, S-9, AROCLOR 1254, Method: DESICCATOR inactive; negative | [3] inactive; negative | Test System: AMES SALMONELLA TYPHIMURIUM, Strain/Indicator: TA104, Metabolic Activation: NONE, Method: STANDARD PLATE inactive; negative

O=S(Cl)Cl
active: Test System: AMES SALMONELLA TYPHIMURIUM, Strain/Indicator: TA100, Metabolic Activation: HAMSTER, LIVER, S-9, AROCLOR 1254 (2.5-20%), Method: PREINCUBATION active; positive | Test System: AMES SALMONELLA TYPHIMURIUM, Strain/Indicator: TA102, Metabolic Activation: HAMSTER, LIVER, S-9, AROCLOR 1254, Method: PREINCUBATION active; positive | Test System: AMES SALMONELLA TYPHIMURIUM, Strain/Indicator: TA102, Metabolic Activation: RAT, LIVER, S-9, AROCLOR 1254, Method: PREINCUBATION active; positive | Test System: Mouse lymphoma, Strain/Indicator: L5178Y (tk+/tk-), Metabolic Activation: None, Method: Suspension/plate active; equivocal (previous evaluation positive)
inactive: Test System: Mouse lymphoma, Strain/Indicator: L5178Y (tk+/tk-), Metabolic Activation: Rat, Liver, S-9, Aroclor 1254, Method: Suspension/plate inactive; inconclusive (previous evaluation negative)

COC(=O)NC(=S)Nc1ccccc1NC(=S)NC(=O)OC
inactive: Test System: AMES SALMONELLA TYPHIMURIUM, Strain/Indicator: TA97, Metabolic Activation: HAMSTER, LIVER, S-9, AROCLOR 1254 (10 OR 30%), Method: PREINCUBATION inactive; negative | Test System: AMES SALMONELLA TYPHIMURIUM, Strain/Indicator: TA97, Metabolic Activation: NONE, Method: PREINCUBATION inactive; negative | Test System: AMES SALMONELLA TYPHIMURIUM, Strain/Indicator: TA97, Metabolic Activation: RAT, LIVER, S-9, AROCLOR 1254 (10 OR 30%), Method: PREINCUBATION inactive; negative | Test System: AMES SALMONELLA TYPHIMURIUM, Strain/Indicator: TA98, Metabolic Activation: HAMSTER, LIVER, S-9, AROCLOR 1254 (10 OR 30%), Method: PREINCUBATION inactive; negative | Test System: AMES SALMONELLA TYPHIMURIUM, Strain/Indicator: TA98, Metabolic Activation: NONE, Method: PREINCUBATION inactive; negative | Test System: AMES SALMONELLA TYPHIMURIUM, Strain/Indicator: TA98, Metabolic Activation: RAT, LIVER, S-9, AROCLOR 1254 (10 OR 30%), Method: PREINCUBATION inactive; negative | Test System: AMES SALMONELLA TYPHIMURIUM, Strain/Indicator: TA98, Metabolic Activation: RAT, LIVER, S-9, AROCLOR 1254 (30%), Method: PREINCUBATION inactive; negative | Test System: AMES SALMONELLA TYPHIMURIUM, Strain/Indicator: TA100, Metabolic Activation: HAMSTER, LIVER, S-9, AROCLOR 1254 (10 OR 30%), Method: PREINCUBATION inactive; negative | Test System: AMES SALMONELLA TYPHIMURIUM, Strain/Indicator: TA100, Metabolic Activation: NONE, Method: PREINCUBATION inactive; negative | Test System: AMES SALMONELLA TYPHIMURIUM, Strain/Indicator: TA100, Metabolic Activation: RAT, LIVER, S-9, AROCLOR 1254 (10 OR 30%), Method: PREINCUBATION inactive; negative | Test System: AMES SALMONELLA TYPHIMURIUM, Strain/Indicator: TA1535, Metabolic Activation: HAMSTER, LIVER, S-9, AROCLOR 1254 (10 OR 30%), Method: PREINCUBATION inactive; negative | Test System: AMES SALMONELLA TYPHIMURIUM, Strain/Indicator: TA1535, Metabolic Activation: NONE, Method: PREINCUBATION inactive; negative | Test System: AMES SALMONELLA TYPHIMURIUM, Strain/Indicator: TA1535, Metabolic Activation: RAT, LIVER, S-9, AROCLOR 1254 (10 OR 30%), Method: PREINCUBATION inactive; negative | Test System: AMES SALMONELLA TYPHIMURIUM, Strain/Indicator: TA1537, Metabolic Activation: HAMSTER, LIVER, S-9, AROCLOR 1254 (30%), Method: PREINCUBATION inactive; negative | Test System: AMES SALMONELLA TYPHIMURIUM, Strain/Indicator: TA1537, Metabolic Activation: NONE, Method: PREINCUBATION inactive; negative | Test System: AMES SALMONELLA TYPHIMURIUM, Strain/Indicator: TA1537, Metabolic Activation: RAT, LIVER, S-9, AROCLOR 1254 (30%), Method: PREINCUBATION inactive; negative
active: Test System: AMES SALMONELLA TYPHIMURIUM, Strain/Indicator: TA98, Metabolic Activation: HAMSTER, LIVER, S-9, AROCLOR 1254 (30%), Method: PREINCUBATION active; positive | Test System: AMES SALMONELLA TYPHIMURIUM, Strain/Indicator: TA100, Metabolic Activation: HAMSTER, LIVER, S-9, AROCLOR 1254 (30%), Method: PREINCUBATION active; positive

Cc1cc2c(N3CCCC3)nc(N3CCCC3)nc2n1C
active: Test System: UDS RAT HEPATOCYTES, Strain/Indicator: THY-INCORP, Metabolic Activation: NONE, Method: AUTORADIOGRAPHY active; positive

CNc1nncc2ccccc12
active: [3] active; positive | Test System: AMES SALMONELLA TYPHIMURIUM, Strain/Indicator: TA100, Metabolic Activation: RAT, LIVER, S-9, PHENOBARBITAL, Method: STANDARD PLATE active; positive | Test System: UDS RAT HEPATOCYTES, Strain/Indicator: THY INCORP, Metabolic Activation: NONE, Method: AUTORADIOGRAPHY active; positive
inactive: Test System: UDS RODENT HEPATOCYTES, Strain/Indicator: THY INCORP (NON-S-PHASE), Metabolic Activation: HOST-MEDIATED, Method: IN VIVO-IN VITRO inactive; negative

CC(=O)c1cc2c(cc1C)C(C)(C)C(C)C2(C)C (stereo not drawn)
inactive: [1] inactive; negative | Test System: AMES SALMONELLA TYPHIMURIUM, Strain/Indicator: TA97, Metabolic Activation: RAT LIVER S-9, AROCLOR 1254, Method: STANDARD PLATE inactive; negative | [2] inactive; negative | Test System: AMES SALMONELLA TYPHIMURIUM, Strain/Indicator: TA98, Metabolic Activation: RAT LIVER S-9, AROCLOR 1254, Method: STANDARD PLATE inactive; negative | [3] inactive; negative | Test System: AMES SALMONELLA TYPHIMURIUM, Strain/Indicator: TA100, Metabolic Activation: RAT LIVER S-9, AROCLOR 1254, Method: STANDARD PLATE inactive; negative | Test System: AMES SALMONELLA TYPHIMURIUM, Strain/Indicator: TA102, Metabolic Activation: NONE, Method: STANDARD PLATE inactive; negative | Test System: AMES SALMONELLA TYPHIMURIUM, Strain/Indicator: TA102, Metabolic Activation: RAT LIVER S-9, AROCLOR 1254, Method: STANDARD PLATE inactive; negative
